Data reported in US9732063B2, “Kinase inhibitors” (RESPIVERT LIMITED, priority 2012, dated 2017).
pIC50: −log10 of the molar value. Like-named read-outs stand apart in the source and are kept apart here.

Experiments:
GSK3α = GSK3α (Homo sapiens (Human), UniProt P49840); assay: GSK 3α enzyme inhibition (Z-LYTE FRET, Method 2); assay type: biochemical
Outline: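 Z-LYTE FRET: GSK3α preincubated with compound 2 h at RT, then FRET peptide and ATP added (stocks 8 μM and 40 μM) for 1 h, followed by 1 h protease development. Compound stocks 4–0.004 μg/mL; phosphorylation from coumarin/fluorescein emission ratio.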

HT29 cells = assay: IL-1β-induced IL-8 release in HT29 cells; assay type: cell-based; conditions: Homo sapiens, HT-29, read-out: IC50 Values for Inhibition of Cytokine Release HT29 cells IL-8
Description: HT29 cells, a human colon adenocarcinoma cell line, are plated in a 96 well plate (24 hrs) and pre-treated with compounds at the desired concentration for 2 hours before addition of 5 ng/mL of IL-1β (Abcam) for 24 hours. Supernatants are harvested for IL-8 quantification by Sandwich ELISA (Duo-set, R&D System). The IC50 is determined from the dose response curve.

[1] = system: intestinal mucosa biopsies from the inflamed regions of the colon; assay: Human biopsy assay (intestinal mucosa biopsies of ulcerative colitis patients); assay type: cell-based; conditions: 24 hours; for cytokine (IL-1β, IL-6 and IL-8) release compared to the DMSO control: biopsies from ulcerative colitis patients; for IL-1β release / IL-6 release / IL-8 release: 1 μg/ml, biopsies of UC patients, DMSO control = 100%
Description: Intestinal mucosa biopsies are obtained from the inflamed regions of the colon of IBD patients. […] DMSO control or test compounds at the desired concentration are added to the tissue and incubated for 24 hr in the organ culture chamber. The supernatant is harvested for determination of IL-6, IL-8, IL-1β and TNFα levels by R&D ELISA.

PBMCs [2] = assay: LPS-induced TNFα/IL-8 release in PBMC cells; assay type: cell-based; conditions: Homo sapiens
Outline: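 TNFα and IL-8 in supernatants were measured by sandwich ELISA after 24 h of 1 ng/mL LPS (E. coli O111:B4) at 37 °C, 5% CO2. Test compounds were added 2 h before LPS to PBMCs from healthy subjects, separated on a density gradient.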

d-U937 cells = assay: LPS-induced TNFα/IL-8 release in d-U937 cells; assay type: cell-based; conditions: Homo sapiens
Description: Cells are pre-incubated with final concentrations of test compound for 2 hr and are then stimulated with 0.1 μg/mL of LPS (from E. coli: O111:B4, Sigma) for 4 hr. The supernatant is collected for determination of TNFα and IL-8 concentrations by sandwich ELISA (Duo-set, R&D systems). […] The relative 50% effective concentration (REC50) is determined from the resultant concentration-response curve. The inhibition of IL-8 production is calculated at each concentration of test compound by comparison with vehicle control.

c-Src = c-Src (Homo sapiens (Human), UniProt P12931); assay: c-Src enzyme inhibition (Z-LYTE FRET); assay type: biochemical
Chain of c-Src (P12931 whole entry, looked up): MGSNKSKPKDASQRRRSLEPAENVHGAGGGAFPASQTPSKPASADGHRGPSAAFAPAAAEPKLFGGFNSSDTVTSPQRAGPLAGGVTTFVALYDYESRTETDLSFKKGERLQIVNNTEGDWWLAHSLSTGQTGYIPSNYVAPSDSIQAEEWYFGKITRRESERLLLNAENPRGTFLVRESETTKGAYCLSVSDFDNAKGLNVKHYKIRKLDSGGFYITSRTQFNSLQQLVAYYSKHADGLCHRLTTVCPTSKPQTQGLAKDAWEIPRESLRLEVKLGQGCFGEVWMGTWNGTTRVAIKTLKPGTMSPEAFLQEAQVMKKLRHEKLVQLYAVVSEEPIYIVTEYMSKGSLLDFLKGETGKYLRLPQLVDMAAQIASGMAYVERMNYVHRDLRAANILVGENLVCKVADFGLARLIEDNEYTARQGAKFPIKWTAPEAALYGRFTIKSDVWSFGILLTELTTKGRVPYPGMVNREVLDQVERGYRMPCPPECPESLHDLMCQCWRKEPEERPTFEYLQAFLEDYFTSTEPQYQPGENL
Outline: (§1)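 Kinase activity is measured on a dual-labelled synthetic peptide by FRET. ATP is supplied as an 800 μM solution for c-Src and a 60 μM solution for Syk. Compound is tested at four added concentrations, 4 to 0.004 μg/mL.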

TNBS-induced colitis = conditions: for LP inflammation / Ulcer grade: oral gavage BID, conducted over 2 days, mice; for inflammatory cell infiltrate in the reticular and laminar propria zone / ulcer grade and epithelial repair compared to the vehicle control: dosed orally at either 1 or 5 mg/kg
Description: On Day 0 of the study TNBS (200 μL) is administered intra-colonically via a plastic catheter followed by BID dosing of the vehicle, reference or test compound for 2 or 4 days. During the study animals are weighed every day and stool observations are made and recorded as a score, based on stool consistency. At the time of sacrifice on Day 2 (or Day 4) the large intestine is removed and the length and weight recorded. Sections of the colon are taken for either MPO analysis to determine neutrophil infiltration or for histopathology involving scoring to determine disease severity.

p38 MAPKα = p38 MAPKα (Homo sapiens (Human), UniProt Q16539); assay: p38 MAPKα enzyme inhibition (Z-LYTE FRET, Method 2); assay type: biochemical
Chain of p38 MAPKα (Q16539 whole entry): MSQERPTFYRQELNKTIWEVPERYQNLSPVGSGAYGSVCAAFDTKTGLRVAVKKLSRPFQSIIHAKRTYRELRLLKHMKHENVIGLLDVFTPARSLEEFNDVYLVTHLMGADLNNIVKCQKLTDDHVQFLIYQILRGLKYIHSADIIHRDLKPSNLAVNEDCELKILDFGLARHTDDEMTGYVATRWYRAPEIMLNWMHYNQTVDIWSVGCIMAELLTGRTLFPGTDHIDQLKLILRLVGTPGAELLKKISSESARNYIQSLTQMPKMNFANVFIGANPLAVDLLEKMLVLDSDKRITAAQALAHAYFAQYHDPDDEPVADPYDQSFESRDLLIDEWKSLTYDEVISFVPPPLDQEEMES

PBMCs [3] = assay: IL-2 and IFN gamma release in CD3/CD28 stimulated PBMC cells; assay type: cell-based; conditions: Homo sapiens
Outline: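 They were cultured with compound for 3 days. IL-2 and IFN-γ in supernatants were quantified by sandwich ELISA, and IC50 was derived from the dose-response curve.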

Syk = Syk (Homo sapiens (Human), UniProt P43405); assay: Syk enzyme inhibition (Z-LYTE FRET); assay type: biochemical
Outline: as §1

[4] = read-out: IC50 Values for Inhibition of Cytokine Release PBMCs IL-8
[5] = dU937, read-out: IC50 Values for Inhibition of Cytokine Release dU937 cells IL-8
[6] = dU937, read-out: IC50 Values for Inhibition of Cytokine Release dU937 cells TNFα
[7] = read-out: IC50 Values for Inhibition of Cytokine Release PBMCs IFNγ
[8] = read-out: IC50 Values for Inhibition of Cytokine Release PBMCs IL-2
[9] = read-out: IC50 Values for Inhibition of Cytokine Release PBMCs TNFα

Chain of GSK3α (P49840 whole entry): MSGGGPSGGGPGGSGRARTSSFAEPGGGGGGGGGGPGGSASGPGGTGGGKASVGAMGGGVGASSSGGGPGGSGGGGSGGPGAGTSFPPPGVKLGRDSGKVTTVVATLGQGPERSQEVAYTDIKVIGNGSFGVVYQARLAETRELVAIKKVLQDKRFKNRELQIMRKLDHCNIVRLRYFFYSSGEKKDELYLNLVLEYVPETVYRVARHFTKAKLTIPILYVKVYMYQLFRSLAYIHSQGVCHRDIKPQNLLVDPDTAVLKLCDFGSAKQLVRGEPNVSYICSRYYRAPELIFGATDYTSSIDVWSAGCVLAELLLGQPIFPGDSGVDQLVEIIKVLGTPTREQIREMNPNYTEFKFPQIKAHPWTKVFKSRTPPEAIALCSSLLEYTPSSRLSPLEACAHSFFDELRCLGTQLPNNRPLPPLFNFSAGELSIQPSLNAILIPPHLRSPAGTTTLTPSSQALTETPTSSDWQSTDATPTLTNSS

Row | Structure (SMILES) | pIC50 (GSK3α) | pIC50 (HT29 cells) | cytokine (IL-1β, IL-6 and IL-8) release compared to the DMSO control ([1]; 1 μg/mL) | IL-1β release [1] [%] | IL-6 release [1] [%] | IL-8 release [1] [%] | pIC50 (PBMCs [2]; [4]) | pIC50 (d-U937 cells; [5]) | pIC50 (d-U937 cells; [6]) | pIC50 (c-Src) | LP inflammation (TNBS-induced colitis; 1 mg/kg) | Ulcer grade (TNBS-induced colitis; 1 mg/kg) | LP inflammation (TNBS-induced colitis; 5 mg/kg) | Ulcer grade (TNBS-induced colitis; 5 mg/kg) | inflammatory cell infiltrate in the reticular and laminar propria zone (TNBS-induced colitis) | ulcer grade and epithelial repair compared to the vehicle control (TNBS-induced colitis) | pIC50 (p38 MAPKα) | pIC50 (PBMCs [3]; [7]) | pIC50 (PBMCs [3]; [8]) | pIC50 (Syk) | further results
1 | COCCOCCOCCOc1cc(Nc2nccc(Oc3ccc(NC(=O)Nc4cc(C(C)C)nn4-c4ccc(C)cc4)c4ccccc34)n2)cc(OC)c1 [Example 13, 1-(3-Isopropyl-1-(p-tolyl)-1H-pyrazol-5-yl)-3-(4-((2-((3-methoxy-5-(2-(2-(2-methoxy-ethoxy)ethoxy)ethoxy)phenyl)amino)pyrimidin-4-yl)oxy)naphthalen-1-yl)urea] | < 5.05 | 8.33 | significantly inhibited | 10 ± 13 | 32 ± 64 | 3 ± 4 | 8.60 | 8.85 | 8.36 | 8.00 | 2.1 ± 0.3 | 2.5 ± 0.4 | 2.6 ± 0.3 | 3.1 ± 0.3 | marked reduction | marked improvements | 7.19 | 8.52 | 7.72 | – | cytokine (IL-1β, IL-6 and IL-8) release compared to the DMSO control ([1]; 0.1 μg/mL (data not shown)): significantly inhibited
2 | COCCOCCOCCOc1cc(Nc2nccc(Oc3ccc(NC(=O)Nc4cc(C(C)(C)C)nn4-c4ccc(OC)cc4)c4ccccc34)n2)cc(OC)c1 [Example 44, 1-(3-(tert-Butyl)-1-(4-methoxyphenyl)-1H-pyrazol-5-yl)-3-(4-((2-((3-methoxy-5-(2-(2-(2-methoxyethoxy)ethoxy)ethoxy)phenyl)amino)pyrimidin-4-yl)oxy)naphthalen-1-yl)urea] | – | 8.92 | significantly inhibited | 4 ± 5 | 25 ± 44 | 2 ± 2 | 8.80 | 9.22 | 9.30 | 8.00 | – | – | – | – | marked reduction | marked improvements | 6.99 | 8.85 | 7.41 | 7.64 | pIC50 (PBMCs [2]; [9]): 9.22
3 | COc1cc(Nc2nccc(Oc3ccc(NC(=O)Nc4cc(C(C)(C)C)nn4-c4ccc(C)cc4)c4ccccc34)n2)cc(S(=O)(=O)C2CC2)c1 [Example 47, 1-(3-(tert-Butyl)-1-(p-tolyl)-1H-pyrazol-5-yl)-3-(4-((2-((3-(cyclopropylsulfonyl)-5-methoxy-phenyl)amino)pyrimidin-4-yl)oxy)naphthalen-1-yl)urea] | 5.17 | 8.82 | significantly inhibited | 5 ± 6 | 17 ± 5 | 26 ± 15 | 8.59 | 8.92 | 9.22 | 7.34 | 2.6 ± 0.3 | 3.5 ± 0.4 | 2.1 ± 0.3 | 2.8 ± 0.4 | marked reduction | marked improvements | 6.79 | 8.96 | 7.02 | – | –
4 | COCCOCCOCCOCCOCCOCCOCCOc1cc(Nc2nccc(Oc3ccc(NC(=O)Nc4cc(C(C)(C)C)nn4-c4ccc(C)cc4)c4ccccc34)n2)cc(OC)c1 [Example 51, 1-(4-((2-((3-(2,5,8,11,14,17,20-Heptaoxadocosan-22-yloxy)-5-methoxyphenyl)amino)pyrimidin-4-yl)oxy)naphthalen-1-yl)-3-(3-(tert-butyl)-1-(p-tolyl)-1H-pyrazol-5-yl)urea] | 5.88 | 8.80 | significantly inhibited | 4 ± 2 | 12 ± 15 | 2 ± 1 | 8.72 | 9.40 | 9.52 | 8.00 | 3.1 ± 0.4 | 2.8 ± 0.5 | 2.3 ± 0.4 | 2.6 ± 0.5 | marked reduction | marked improvements | 7.28 | 8.74 | 7.39 | 7.74 | –
5 | COCCOCCOCCOc1cc(Nc2cc(Oc3ccc(NC(=O)Nc4cc(C(C)(C)C)nn4-c4ccc(C)cc4)c4ccccc34)ccn2)cc(OC)c1 [Example 56, 1-(3-(tert-Butyl)-1-(p-tolyl)-1H-pyrazol-5-yl)-3-(4-((2-((3-methoxy-5-(2-(2-(2-methoxyethoxy)ethoxy)ethoxy)phenyl)amino)pyridin-4-yl)oxy)naphthalen-1-yl)urea] | – | 8.35 | significantly inhibited | 5 ± 1 | 19 ± 18 | 3 ± 3 | 8.62 | 8.85 | 9.10 | 7.55 | 2.1 ± 0.3 | 2.3 ± 0.4 | 2.4 ± 0.3 | 3.2 ± 0.4 | marked reduction | marked improvements | 6.85 | 8.57 | 6.82 | 7.37 | pIC50 (PBMCs [2]; [9]): 8.80
